# Legend:
# [1] = system: TNF-α production by BV2 cells or PBMC; experiment: Cellular assay to measure TNF-α inhibition (LPS stimulation, ELISA); assay type: cell-based, murine or human; details: 100 ng/ml LPS over 24 hours, relative to DMSO vehicle, compound concentration and cell type not given
# Source text: Oxidative metabolism exerts an anti-inflammatory effect on myeloid cell phenotype (O'Neill L A, Front Immunol. 2014) and Ppargc1a can promote this energy metabolic pathway (Spiegelman B M, Novartis Found Symp. 2007). Thus, pharmacological activation of Ppargc1a would be expected to inhibit the inflammatory response of myeloid cells. This phenomenon can be measured in cultures by a TNF-α inhibition assay.
# Cellular Assay Protocol to Measure TNF-α Inhibition
# The murine myeloid cell line BV2 or human peripheral blood mononuclear cells (PBMC) are cultured in RPMI 1640 media (Cat #11875119, Gibco) supplemented with 10% fetal bovine serum and 1% L-glutamine 1% penicillin. These cells are then stimulated with 100 ng/ml of lipopolysaccharide (LPS, O111:B4, Cat #L2630, Sigma) over 24 hours. LPS stimulation results in the secretion of the inflammatory cytokine TNF-α by BV2 cells or PBMC, which can be quantified by ELISA in culture supernatant samples per manufacturer's protocol (Cat #558273 for BV2 and Cat #558299 for PBMC, BD Biosciences). To determine whether example compounds 1-78 inhibit TNF-α production by BV2 cells or PBMC, the cells were cultured in the presence of the compounds at different concentrations, and fold reduction in TNF-α production relative to TNF-α production by the same cells cultured in the presence of dimethylsulfoxide (as vehicle control) was determined.
# Caco-2 cells = experiment: Caco-2 permeability assay; assay type: in vitro ADME; details: 10 μM, pH 7.4, 2 h; for Caco2 A → B: apparent permeability A→B, without elacridar
# Experimental: Caco-2 Permeability Assay Protocol
# The mixture was analyzed by LC-MS/MS.
# [2] = Pharmacokinetic study (mouse): API levels in plasma, brain and liver; assay type: in vivo; details: mice, prodrug 10 mg/kg p.o., 0.5 h-4 h, API = example 1 compound; for plasma levels of API: FIG. 1; for brain levels of API: FIG. 2; for liver levels of API: FIG. 3
# Experimental: Pharmacokinetic studies (mouse) were performed on the example 1, 6-P, 8-P, and 11-P compounds of the present invention. The example 1, 6-P, 8-P, and 11-P compounds were dosed in mice at 10 mg/kg p.o. (n=2). Plasma, brain, and liver were harvested at 0.5 h, 1 h, 2 h, and 4 h. The samples were analyzed by LCMS to determine levels of the example 1 compound, i.e., the active pharmaceutical ingredient (API) for prodrug examples 6-P, 8-P, and 11-P.
plasma levels of API [2],brain levels of API [2],liver levels of API [2],Structure (SMILES),TNFα Inhibition [1],also measured
,,,"CC(C)(C)c1ccc(-c2nc3ccccc3[nH]2)cc1 [Example 1, 2-(4-(tert-Butyl)phenyl)-1H-benzo[d]imidazole]",A (A = >80% inh.),
,,,"Clc1ccc(-c2nc3ccccc3[nH]2)cc1 [Example 8, 2-(4-Chlorophenyl)-1H-benzo[d]imidazole]",C (C = <50% inh.),
,,,"c1ccc(-c2nc3ccccc3[nH]2)cc1 [Example 14, 2-(Phenyl)-1H-benzo[d]imidazole]",C (C = <50% inh.),
,,,"CC(C)(C)c1ccc(-c2nc3cc(C(F)(F)F)ccc3[nH]2)cc1 [Example 42, (4-tert-Butylphenyl)-5-(trifluoromethyl)-1H-benzo[d]imidazole]",,Caco2 B → A (Caco-2 cells; apparent permeability B→A): 1.2 nm/s
measurable amounts,measurable amounts,measurable amounts,"CC(C)(C)c1ccc(-c2nc3ccccc3n2COC(=O)c2ccc(CN)cc2)cc1.Cl [Example 8-P, (4-(((2-(4-(tert-butyl)phenyl)-1H-benzo[d]imidazol-1-yl)methoxy)carbonyl)-phenyl)methylammonium hydrochloride]",,
measurable amounts,measurable amounts,measurable amounts,"CC(C)(C)c1ccc(-c2nc3ccccc3n2COC(=O)CCC(=O)O)cc1 [Example 6-P, 4-((2-(4-(tert-Butyl)phenyl)-1H-benzo[d]imidazol-1-yl)methoxy)-4-oxobutanoic acid]",,
,,,"CC(C)(C)c1ccc(-c2nc3cc(C(N)=O)ccc3[nH]2)cc1 [Example 75, 2-(4-tert-Butylphenyl)-1H-benzo[d]imidazol-5-carboxamide]",,Caco2 A → B (Caco-2 cells): 16 nm/s
measurable amounts,measurable amounts,measurable amounts,"CC(C)(C)c1ccc(-c2nc3ccccc3n2COP(=O)([O-])[O-])cc1.[Na+].[Na+] [Example 11-P, Disodium ((2-(4-(tert-butyl)phenyl)-1H-benzo[d]imidazol-1-yl)methyl) phosphate]",,
,,,"CC(C)(C)c1cccc(-c2nc3ccccc3[nH]2)c1 [Example 58, 2-(3-tert-Butylphenyl)-1H-benzo[d]imidazole]",,Caco2 A → B (Caco-2 cells): 21 nm/s

# Source: US12195432B2, “2-arylbenzimidazoles as Ppargc1a activators for treating neurodegenerative diseases” (THE BOARD OF TRUSTEES OF THE LELAND STANFORD JUNIOR …, priority 2018, dated 2025)
